Patent US12479804B2, “Herbicidal compounds” (SYNGENTA CROP PROTECTION AG, priority 2019, dated 2025)

What was measured:
Assay in all cases: Glasshouse herbicidal test, pre- and post-emergence, percentage damage to the plant
Format in all cases: in vivo
[1] = system: Alopecurus myosuroides (ALOMY); conditions: 250 g/h, evaluated after 13 days; for ALOMY POST percentage damage caused to the plant (five-point scale): post-emergence; for ALOMY PRE percentage damage caused to the plant (five-point scale): pre-emergence
Description: (§1) Seeds of a variety of test species are sown in standard soil in pots (Lolium perenne (LOLPE), Setaria faberi (SETFA), Alopecurus myosuroides (ALOMY), Echinochloa crus-galli (ECHCG), Avena fatua (AVEFA)). After cultivation for one day (pre-emergence) or after 8 days cultivation (post-emergence) under controlled conditions in a glasshouse (at 24/16° C., day/night; 14 hours light; 65% humidity), the plants are sprayed with an aqueous spray solution derived from the formulation of the technical active ingredient in acetone/water (50:50) solution containing 0.5% Tween 20 (polyoxyethelyene sorbitan monolaurate, CAS RN 9005-64-5). Compounds are applied at 250 g/h. The test plants are then grown in a glasshouse under controlled conditions in a glasshouse (at 24/16° C., day/night; 14 hours light; 65% humidity) and watered twice daily. After 13 days for pre and post-emergence, the test is evaluated for the percentage damage caused to the plant. The biological activities are shown in the following table on a five-point scale (5=80-100%; 4=60-79%; 3=40-59%; 2=20-39%; 1=0-19%).

[2] = system: Avena fatua (AVEFA); conditions: 250 g/h, evaluated after 13 days; for AVEFA POST percentage damage caused to the plant (five-point scale): post-emergence; for AVEFA PRE percentage damage caused to the plant (five-point scale): pre-emergence
Description: as §1

[3] = system: Echinochloa crus-galli (ECHCG); conditions: 250 g/h, evaluated after 13 days; for ECHCG POST percentage damage caused to the plant (five-point scale): post-emergence; for ECHCG PRE percentage damage caused to the plant (five-point scale): pre-emergence
Description: as §1

[4] = system: Lolium perenne (LOLPE); conditions: 250 g/h, evaluated after 13 days; for LOLPE POST percentage damage caused to the plant (five-point scale): post-emergence; for LOLPE PRE percentage damage caused to the plant (five-point scale): pre-emergence
Description: as §1

[5] = system: Setaria faberi (SETFA); conditions: 250 g/h, evaluated after 13 days; for SETFA POST percentage damage caused to the plant (five-point scale): post-emergence; for SETFA PRE percentage damage caused to the plant (five-point scale): pre-emergence
Description: as §1

SMILES | ALOMY POST percentage damage caused to the plant (five-point scale) [1] | ALOMY PRE percentage damage caused to the plant (five-point scale) [1] | AVEFA POST percentage damage caused to the plant (five-point scale) [2] | AVEFA PRE percentage damage caused to the plant (five-point scale) [2] | ECHCG POST percentage damage caused to the plant (five-point scale) [3] | ECHCG PRE percentage damage caused to the plant (five-point scale) [3] | LOLPE POST percentage damage caused to the plant (five-point scale) [4] | LOLPE PRE percentage damage caused to the plant (five-point scale) [4] | SETFA POST percentage damage caused to the plant (five-point scale) [5] | SETFA PRE percentage damage caused to the plant (five-point scale) [5]
CC#Cc1cc(C)c(C2C(=O)CC3(C=CN(S(=O)(=O)CC)CC3)CC2=O)c(C)c1 (centres unmarked) [Compound A55] | 5 (5=80-100%) | 5 (5=80-100%) | 5 (5=80-100%) | 5 (5=80-100%) | 5 (5=80-100%) | 5 (5=80-100%) | 5 (5=80-100%) | 5 (5=80-100%) | 5 (5=80-100%) | 5 (5=80-100%)
CC#Cc1cc(C)c(C2C(=O)CC3(CCC(=O)N(CC(=O)OC)C3)CC2=O)c(C)c1 (centres unmarked) [Compound A12] | 2 (2=20-39%) | 5 (5=80-100%) | 5 (5=80-100%) | 3 (3=40-59%) | 5 (5=80-100%) | 5 (5=80-100%) | 5 (5=80-100%) | 5 (5=80-100%) | 5 (5=80-100%) | 5 (5=80-100%)
CC#Cc1cc(C)c(C2=C(OC(=O)OC)CC3(CCN(C(C)=O)C3)CC2=O)c(C)c1 (centres unmarked) [Compound P3] | 5 (5=80-100%) | 5 (5=80-100%) | 5 (5=80-100%) | 4 (4=60-79%) | 5 (5=80-100%) | 5 (5=80-100%) | 5 (5=80-100%) | 5 (5=80-100%) | 5 (5=80-100%) | 5 (5=80-100%)
CC#Cc1cc(C)c(C2C(=O)CC3(CCCN(C(C)=O)C3)CC2=O)c(C)c1 (centres unmarked) [Compound A3] | 5 (5=80-100%) | 2 (2=20-39%) | 5 (5=80-100%) | 3 (3=40-59%) | 5 (5=80-100%) | 2 (2=20-39%) | 5 (5=80-100%) | 2 (2=20-39%) | 5 (5=80-100%) | 3 (3=40-59%)
CC#Cc1cc(C)c(C2C(=O)CC3(CCN4C(=O)CCCC4C3)CC2=O)c(C)c1 (centres unmarked) [Compound A13] | 5 (5=80-100%) | 5 (5=80-100%) | 5 (5=80-100%) | 5 (5=80-100%) | 5 (5=80-100%) | 5 (5=80-100%) | 5 (5=80-100%) | 5 (5=80-100%) | 5 (5=80-100%) | 5 (5=80-100%)
CC#Cc1cc(C)c(C2C(=O)CC3(C=CN(C(=O)COC(F)F)CC3)CC2=O)c(C)c1 (centres unmarked) [Compound A50] | 5 (5=80-100%) | 5 (5=80-100%) | 5 (5=80-100%) | 5 (5=80-100%) | 5 (5=80-100%) | 5 (5=80-100%) | 5 (5=80-100%) | 5 (5=80-100%) | 5 (5=80-100%) | 5 (5=80-100%)
CC#Cc1cc(C)c(C2C(=O)CC3(CCC(=O)N(C(C)=O)C3)CC2=O)c(C)c1 (centres unmarked) [Compound A11] | 5 (5=80-100%) | 5 (5=80-100%) | 5 (5=80-100%) | 3 (3=40-59%) | 5 (5=80-100%) | 5 (5=80-100%) | 5 (5=80-100%) | 5 (5=80-100%) | 5 (5=80-100%) | 5 (5=80-100%)
CC#Cc1cc(C)c(C2C(=O)CC3(CCN4C(=O)CCC4C3)CC2=O)c(C)c1 (centres unmarked) [Compound A14] | 5 (5=80-100%) | 5 (5=80-100%) | 5 (5=80-100%) | 5 (5=80-100%) | 5 (5=80-100%) | 5 (5=80-100%) | 5 (5=80-100%) | 5 (5=80-100%) | 5 (5=80-100%) | 5 (5=80-100%)
CC#Cc1cc(C)c(C2C(=O)CC3(C=CN(C(=O)COC)CC3)CC2=O)c(C)c1 (centres unmarked) [Compound A15] | 5 (5=80-100%) | 5 (5=80-100%) | 5 (5=80-100%) | 5 (5=80-100%) | 5 (5=80-100%) | 5 (5=80-100%) | 5 (5=80-100%) | 5 (5=80-100%) | 5 (5=80-100%) | 5 (5=80-100%)
CC#Cc1cc(C)c(C2C(=O)CC3(C=CN(C(=O)C4CC4)CC3)CC2=O)c(C)c1 (centres unmarked) [Compound A49] | 5 (5=80-100%) | 5 (5=80-100%) | 5 (5=80-100%) | 5 (5=80-100%) | 5 (5=80-100%) | 5 (5=80-100%) | 5 (5=80-100%) | 5 (5=80-100%) | 5 (5=80-100%) | 5 (5=80-100%)
CC#Cc1cc(C)c(C2C(=O)CC3(C=CN(C(=O)NC(=O)c4ccccn4)CC3)CC2=O)c(C)c1 (centres unmarked) [Compound A57] | 5 (5=80-100%) | 5 (5=80-100%) | 5 (5=80-100%) | 4 (4=60-79%) | 5 (5=80-100%) | 5 (5=80-100%) | 5 (5=80-100%) | 5 (5=80-100%) | 5 (5=80-100%) | 5 (5=80-100%)
